Where two headings read alike, the source gives them in different places.
Assays:
BM cells [1] = test system: BM cells
Experimental: BM cells were incubated with 11.0-55.5 kBq/10^6 cells of ^89Zr-oxine complex in PBS at 25:1 volume ratios for 20 minutes, washed twice in RPMI media and transferred to a new tube. […] To determine cell viability and retention of ^89Zr after the labeling, BM cells were labeled with 2 different radioactivity doses, 28.12 kBq/10^6 and 8.14 kBq/10^6 cells, and cultured with SCF, FLT3L and TPO (100 ng/ml each). The number of live cells was counted using 0.4% trypan blue dye (Life Technologies) at 0 h, 2 d, 4 d, and 7 d (n=3). At each time point, the cell suspension was spun to separate the supernatant and the cell pellet, and the radioactivity of both fractions was measured by a γ-counter (WIZARD^2 automatic gamma-counter, Perkin Elmer, Waltham, Mass.).

BM cells [2] = test system: BM cells; remark: listed apart in the source
Experimental: The surface expressions of CD117, sca-1 and lineage markers (CD3, NK1.1, Ly6G, CD2, CD5 and B220) on BM cells were examined before and after ^89Zr-oxine labeling (3.15 kBq/2×10^6) and analyzed by flow cytometry using a FACS Calibur flow cytometer (Becton Dickinson, San Jose, Calif.) and analyzed using FlowJo software (Tree Star, Inc., Ashland, Oreg.). BM cell differentiation capability was examined by culturing the ^89Zr-labeled and non-labeled cells with GM-CSF (20 ng/ml) and IL-15 (25 nM) for differentiation to DCs and NK/NK-T cells (n=3). On day 10, the cells were harvested, stained with anti-CD11c, CD86, and NK1.1 antibodies, and analyzed on flow cytometry. For the GM-CSF culture, cell associated-^89Zr activity and cell number were also examined.

CTLs [3] = conditions: TCR stimulation then withdrawal, vs non-labeled
Experimental: (§1) After ^89Zr-oxine complex labeling, DCs were stimulated with LPS (5 ng/ml) overnight. CD8 T cells labeled with ^89Zr-oxine complex were stimulated with plate coated anti-CD3 antibody (10 μg/ml) and anti-CD28 antibody (5 μg/ml) for 3 days, then transferred to an antibody-free culture supplemented with human IL-15 (3 nM).

CTLs [4] = conditions: TCR stimulation
Experimental: (§2) CTLs, both labeled and unlabeled, were activated by plate coated anti-CD3 antibody (10 μg/ml) and anti-CD28 antibody (5 μg/ml) for 1.5 day and expression of CD3, CD8, CD44, CD25, CD69, INF-γ and IL-2 which was evaluated by flow cytometry. Bone marrow-derived DCs on day 6 of culture with or without ^89Zr-oxine complex labeling were stimulated with LPS (1 ng/ml) overnight and surface expression of CD11c, CD80, CD86, CD40, MHC class I and MHC class II was examined. In another experiment, ^89Zr-labeled DCs were stimulated with LPS in the presence of OVA overnight, transferred to Rag1KO mice expressing Ly5.2 (2 million cells) pre-injected with CMFDA labeled OT-1 CD8 T cells expressing Ly5.1. Peripheral blood and splenocytes were collected 3.5 days later and dilution of CMFDA in OT-1 T cells was analyzed using flow cytometry gated on Ly5.1+ CD8 T cells.
CTLs were TCR stimulated after the ^89Zr-oxine complex labeling.

DCs = test system: DCs
Experimental: as §1, §2

CXCR4 = CXCR4 (Mus musculus, UniProt P70658); conditions: at 2 h; plerixafor 5 mg/kg i.v. 15 min before cell transfer
Experimental: A CXCR4 inhibitor, plerixafor (Adooq Bioscience, Irvine, Calif.), was used to interrogate the role of CXCR4 in BM cell migration (n=4). Mice received an i.v. injection of plerixafor (5 mg/kg) 15 min before and 1 day after the ^89Zr-oxine labeled BM cell transfer (331 kBq/2×10^7 cells). Another group of mice received concurrent i.v. injections of G-CSF (2.5 μg, n=4). Deferoxamine was injected intramuscularly 15 min before and 1, 2, 3 and 4 hr after the cell injection. Serial microPET/CT images were acquired.

Chain of CXCR4 (P70658 whole entry): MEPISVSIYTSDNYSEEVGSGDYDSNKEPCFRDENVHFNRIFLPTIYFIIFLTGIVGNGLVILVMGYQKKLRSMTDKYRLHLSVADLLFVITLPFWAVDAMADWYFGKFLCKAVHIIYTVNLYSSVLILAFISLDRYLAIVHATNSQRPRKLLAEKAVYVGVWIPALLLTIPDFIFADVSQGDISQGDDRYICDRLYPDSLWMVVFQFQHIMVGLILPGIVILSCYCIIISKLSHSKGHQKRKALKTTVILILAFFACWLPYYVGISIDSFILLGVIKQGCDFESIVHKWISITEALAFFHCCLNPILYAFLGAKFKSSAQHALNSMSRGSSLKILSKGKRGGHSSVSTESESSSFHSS

Row | migration of labeled cells to the BM (CXCR4) | SMILES | live cell number (BM cells [1]; BM cells labeled at 8.14 kBq/10^6 cells) | live cell number (BM cells [1]; BM cells labeled at 28.12 kBq/10^6 cells) | suppression of the proliferation (BM cells [1]; BM cells, lower labeling dose (8.14 kBq/10^6 cells), vs non-labeled control) | capacity to proliferate and differentiate (BM cells [2]; 10 day culture with GM-CSF or IL-15) | expression of CD117, sca-1 and lineage markers (BM cells [2]; BM cells, 3.15 kBq/2×10^6) | proliferation and contraction of labeled CTLs (CTLs [3]) | production of IFNγ and IL-2 (CTLs [4]) | upregulation of CD69, CD25 and CD44 markers (CTLs [4]; labeled vs non labeled CTLs) | antigen presentation to OT-1 T cells in vivo (DCs; labeled DCs stimulated with LPS and OVA, injected into mice, flow cytometry 4 days after transfer) | expression of B7 molecules, CD80 and CD86, on DCs (DCs; prior to LPS activation)
1 |  | c1cnc2c([O][89Zr]([O]c3cccc4cccnc34)([O]c3cccc4cccnc34)[O]c3cccc4cccnc34)cccc2c1 [^89Zr-oxine complex] | slight proliferation after day 4 | slightly decreased in number | approximately 50% | retained the capacity to proliferate and differentiate normally into mature cells | at similar levels to non-labeled controls | similarly to the non-labeled controls | did not negatively affect | at the similar levels | capable of presenting the antigen and inducing T cell activation and proliferation as well as non-labeled DCs | slightly increased expression
2 | significantly inhibited | c1cc(CN2CCCNCCNCCCNCC2)ccc1CN1CCCNCCNCCCNCC1 [plerixafor] |  |  |  |  |  |  |  |  |  | 

Reference: patent US11192903B2, “Zirconium-89 oxine complex as a cell labeling agent for positron emission tomography” (The United States of America, as represented by the …, priority 2014, dated 2021)
